Usually EC50 stands for the concentration at which the effect is half-maximal.

Data on 42 compounds can be found in US10077264B2, “Derivatives and methods of treating hepatitis B infections” (Novira Therapeutics, Inc., priority 2014, dated 2018).

Where only a bound is given, the exact number is not on record here.

In one assay the test system is HBV replication in HepG2.2.15 cells. The experiment in a line: HBV replication inhibition assay (BDNA assay). Format: cell-based. To be noted: HepG2.2.15 cells, 6 days, encapsidated HBV DNA in supernatant; read-out: Activity in BDNA-assay (EC50). From the text: HBV replication inhibition by the compounds of this invention could be determined in cells infected or transfected with HBV, or cells with stably integrated HBV, such as HepG2.2.15 cells (Sells et al. 1987). In this example, HepG2.2.15 cells were maintained in cell culture medium containing 10% fetal bovine serum (FBS), Geneticin, L-glutamine, penicillin and streptomycin. HepG2.2.15 cells could be seeded in 96-well plates at a density of 40,000 cells/well and be treated with serially diluted compounds at a final DMSO concentration of 0.5% either alone or in combination by adding drugs in a checker box format. Cells were incubated with compounds for three days, after which medium was removed and fresh medium containing compounds was added to cells and incubated for another three days. At day 6, supernatant was removed and treated with DNase at 37° C. for 60 minutes, followed by enzyme inactivation at 75° C. for 15 minutes. Encapsidated HBV DNA was released from the virions and covalently linked HBV polymerase by incubating in lysis buffer (Affymetrix QS0010) containing […] proteinase K at 50° C. for 40 minutes. HBV DNA was denatured by addition of 0.2 M NaOH and detected using a branched DNA (BDNA) QuantiGene assay kit according to manufacturer recommendation (Affymetrix). HBV DNA levels could also be quantified using qPCR, based on amplification of encapsidated HBV DNA extraction with QuickExtraction Solution (Epicentre Biotechnologies) and amplification of HBV DNA using HBV specific PCR probes that can hybridize to HBV DNA and a fluorescently labeled probe for quantitation. In addition, cell viability of HepG2.2.15 cells incubated with test compounds alone or in combination was determined by using CellTitre-Glo reagent according to the manufacturer protocol (Promega). The mean background signal from wells containing only culture medium was subtracted from all other samples, and percent inhibition at each compound concentration was calculated by normalizing to signals from HepG2.2.15 cells treated with 0.5% DMSO using equation E1. % inhibition=(DMSOave−Xi)/DMSOave×100% E1: • where DMSOave is the mean signal calculated from the wells that were treated with DMSO control (0% inhibition control) and Xi is the signal measured from the individual wells. EC50 values, effective concentrations that achieved 50% inhibitory effect, were determined by non-linear fitting using Graphpad Prism software (San Diego, Calif.) and equation E2 Y=Ymin+(Ymax−Ymin)/(1+10(Log EC50−X)×HillSlope) E2: • where Y represents percent inhibition values and X represents the logarithm of compound concentrations.
Selected compounds of the invention were assayed in the HBV replication assay (BDNA assay), as described above and a representative group of these active compounds is shown in Table 3.
For `CC1Cc2[nH]nc(-c3ccccc3)c2CN1C(=O)Nc1cccc(Cl)c1` (single isomer, unassigned) [317 (E1), N-(3-chlorophenyl)-6-methyl-3-phenyl-1,4,6,7-tetrahydropyrazolo[4,3-c]pyridine-5-carboxamide], the EC50 lay within 10 to 100 nM.
Still for that read-out and setting: next, `CC1Cc2[nH]nc(-c3ccccc3)c2CN1C(=O)Nc1cccc(Cl)c1` (single isomer, unassigned) [317 (E2), N-(3-chlorophenyl)-6-methyl-3-phenyl-1,4,6,7-tetrahydropyrazolo[4,3-c]pyridine-5-carboxamide]: 100 to 500 nM.
The same measure, in the same setting: next, `CC1c2c(-c3ccccc3)n[nH]c2CCN1C(=O)Nc1cccc(Cl)c1` (single isomer, unassigned) [318 (E2), N-(3-chlorophenyl)-4-methyl-3-phenyl-1,4,6,7-tetrahydropyrazolo[4,3-c]pyridine-5-carboxamide]: 100 to 500 nM; `CC1Cc2[nH]nc(-c3cscn3)c2CN1C(=O)Nc1ccc(F)c(Cl)c1` (stereo not drawn) [917 E2]: 10 to 100 nM.
Turning to `CC1Cc2[nH]nc(-c3cscn3)c2CN1C(=O)Nc1cccc(Br)c1` (stereo not drawn) [918 E2], the EC50 lay within 10 to 100 nM.
The same measure, in the same setting: next, `CC1Cc2[nH]nc(-c3cscn3)c2CN1C(=O)Nc1ccc(F)c(Br)c1` (stereo not drawn) [919 E2]: 10 to 100 nM.
Still for that read-out and setting: the result for `CC1Cc2[nH]nc(-c3cscn3)c2CN1C(=O)Nc1cccc(Br)c1F` (stereo not drawn) [920 E2] reads 10 to 100 nM; that for `CC1Cc2[nH]nc(-c3cscn3)c2CN1C(=O)Nc1ccnc(Br)c1F` (stereo not drawn) [921 E2], 10 to 100 nM; that for `CC1Cc2[nH]nc(-c3cscn3)c2CN1C(=O)Nc1ccc(F)c(C#N)c1` (stereo not drawn) [922 E2], 10 to 100 nM.
For the compound `Cc1cccc(NC(=O)N2Cc3c(-c4cscn4)n[nH]c3CC2C)c1` (stereo not drawn) [923 E2], the EC50 was in the range of 10 to 100 nM.
Still for that read-out and setting: next, `Cc1cc(NC(=O)N2Cc3c(-c4cscn4)n[nH]c3CC2C)ccc1F` (stereo not drawn) [924 E2]: 10 to 100 nM.

Still in this assay, the particulars now being: Hepatitis B virus, 144 h; HepG2.2.15 cells, 10 μM, 6 days, encapsidated HBV DNA in supernatant; read-out: Activity in BDNA-assay (activity at 10 μM).
In the case of `O=C(C1C[C@H]1c1ccccc1)N1CCc2[nH]nc(-c3ccccc3)c2C1` (stereo in doubt) [Compound 030, (2-phenylcyclopropyl)-(3-phenyl-2,4,6,7-tetrahydropyrazolo[4,3-c]pyridin-5-yl)methanone], the inhibition at 10 µM is over 50%.
On the same count and under the same terms, next, `O=C(COc1cncnc1)N1CCc2[nH]nc(-c3ccccc3)c2C1` [Compound 001]: over 50%; `CC(OC(=O)N1CCc2[nH]nc(-c3ccccc3)c2C1)c1ccccc1` (stereo not drawn) [Compound 016, 1-phenylethyl 3-phenyl-1,4,6,7-tetrahydropyrazolo[4,3-c]pyridine-5-carboxylate]: over 50%.
On the same count and under the same terms, the result for `O=C(NCc1ccccc1)N1CCc2[nH]nc(-c3ccccc3)c2C1` [Compound 017, N-benzyl-3-phenyl-1,4,6,7-tetrahydropyrazolo[4,3-c]pyridine-5-carboxamide] reads over 50%.
For the compound `O=C(OCc1ccccc1)N1CCc2[nH]nc(-c3ccccc3)c2C1` [Compound 024, benzyl 3-phenyl-1,4,6,7-tetrahydropyrazolo[4,3-c]pyridine-5-carboxylate], the inhibition at 10 µM was over 50%.
Regarding `O=C(CCc1ccccc1)N1CCc2[nH]nc(-c3ccccc3)c2C1` [Compound 027, 3-phenyl-1-(3-phenyl-1,4,6,7-tetrahydropyrazolo[4,3-c]pyridin-5-yl)propan-1-one], the inhibition at 10 µM was over 50%.
The same measure, in the same setting: next, `O=C(/C=C/c1ccccc1)N1CCc2[nH]nc(-c3ccccc3)c2C1` [Compound 057, (E)-3-phenyl-1-(3-phenyl-1,4,6,7-tetrahydropyrazolo[4,3-c]pyridin-5-yl)prop-2-en-1-one]: over 50%; `O=C(Nc1ccc(Cl)cc1)N1CCc2[nH]nc(-c3ccccc3)c2C1` [Compound 113]: over 50%.
Still for that read-out and setting: the result for `O=C(COc1ccccc1F)N1CCc2[nH]nc(-c3ccccc3)c2C1` [Compound 142] reads over 50%; that for `O=C(COc1cccc(F)c1)N1CCc2[nH]nc(-c3ccccc3)c2C1` [Compound 143], over 50%; that for `O=C(COc1ccc(F)cc1)N1CCc2[nH]nc(-c3ccccc3)c2C1` [Compound 144], over 50%.
The same measure, in the same setting: next, `Cc1cccc(OCC(=O)N2CCc3[nH]nc(-c4ccccc4)c3C2)c1` [Compound 145]: over 50%; `Cc1ccc(OCC(=O)N2CCc3[nH]nc(-c4ccccc4)c3C2)cc1` [Compound 147]: over 50%; `O=C(COc1ccccc1Cl)N1CCc2[nH]nc(-c3ccccc3)c2C1` [Compound 148]: over 50%.
With `O=C(COc1cccc(Cl)c1)N1CCc2[nH]nc(-c3ccccc3)c2C1` [Compound 149], the inhibition at 10 µM is over 50%.
As to `O=C(COc1ccc(Cl)cc1)N1CCc2[nH]nc(-c3ccccc3)c2C1` [Compound 150], the inhibition at 10 µM was over 50%.
As to `N#Cc1ccccc1OCC(=O)N1CCc2[nH]nc(-c3ccccc3)c2C1` [Compound 154], the inhibition at 10 µM is over 50%.

The assay is the same for the next values; noted with them: Hepatitis B virus, HepG2.2.15, 144 h, HepG2.2.15 cells, 6 days, encapsidated HBV DNA in supernatant; read-out: Activity in BDNA-assay (EC50).
`CC1c2c(-c3ccccc3)n[nH]c2CCN1C(=O)Nc1cccc(Cl)c1` (single isomer, unassigned) [318 (E1), N-(3-chlorophenyl)-4-methyl-3-phenyl-1,4,6,7-tetrahydropyrazolo[4,3-c]pyridine-5-carboxamide]: the EC50 fell in the range of 100 to 500 nM.
Turning to `CC1Cc2[nH]nc(-c3cscn3)c2CN1C(=O)Nc1ccc(F)c(Cl)c1` (stereo not drawn) [917 E1, N-(3-chloro-4-fluoro-phenyl)-6-methyl-3-thiazol-4-yl-1,4,6,7-tetrahydropyrazolo[4,3-c]pyridine-5-carboxamide], the EC50 is 10 to 100 nM.
Regarding `CC1Cc2[nH]nc(-c3cscn3)c2CN1C(=O)Nc1cccc(Br)c1` (stereo not drawn) [918 E1], the EC50 was 10 to 100 nM.
On to `CC1Cc2[nH]nc(-c3cscn3)c2CN1C(=O)Nc1ccc(F)c(Br)c1` (stereo not drawn) [919 E1], for which the EC50 was 10 to 100 nM.
Still for that read-out and setting: the result for `CC1Cc2[nH]nc(-c3cscn3)c2CN1C(=O)Nc1cccc(Br)c1F` (stereo not drawn) [920 E1] reads 10 to 100 nM; that for `CC1Cc2[nH]nc(-c3cscn3)c2CN1C(=O)Nc1ccnc(Br)c1F` (stereo not drawn) [921 E1], 10 to 100 nM; that for `CC1Cc2[nH]nc(-c3cscn3)c2CN1C(=O)Nc1ccc(F)c(C#N)c1` (stereo not drawn) [922 E1], 10 to 100 nM.
As to `Cc1cccc(NC(=O)N2Cc3c(-c4cscn4)n[nH]c3CC2C)c1` (stereo not drawn) [923 E1], the EC50 is 10 to 100 nM.
As to `Cc1cc(NC(=O)N2Cc3c(-c4cscn4)n[nH]c3CC2C)ccc1F` (stereo not drawn) [924 E1], the EC50 was in the range of 10 to 100 nM.
Same read-out and setting: the result for `CC(Oc1ccccc1)C(=O)N1CCc2[nH]nc(-c3ccccc3)c2C1` (stereo not drawn) [Compound 014, 2-phenoxy-1-(3-phenyl-1,4,6,7-tetrahydropyrazolo[4,3-c]pyridin-5-yl)propan-1-one] reads 1000 to 1500 nM; that for `O=C(Nc1cccc(Cl)c1)N1CCc2[nH]nc(-c3ccccc3)c2C1` [Compound 112], 10 to 100 nM; that for `O=C(Nc1ccc(F)c(Cl)c1)N1CCc2[nH]nc(-c3ccccc3)c2C1` [Compound 114], 10 to 100 nM.

The same assay, now with this note: Hepatitis B virus, HepG2.2.15, 144 h, read-out: Activity in BDNA-assay (EC50).
`O=C(Nc1ccccc1)N1CCc2[nH]nc(-c3ccccc3)c2C1` [Compound 022, N,3-diphenyl-1,4,6,7-tetrahydropyrazolo[4,3-c]pyridine-5-carboxamide]: the EC50 fell in the range of 100 to 500 nM.

Still in this assay, the particulars now being: Hepatitis B virus, HepG2.2.15, 144 h, read-out: Activity in BDNA-assay (activity at 10 μM).
As for `O=C(Oc1ccccc1)N1CCc2[nH]nc(-c3ccccc3)c2C1` [Compound 021, phenyl3-phenyl-1,4,6,7-tetrahydropyrazolo[4,3-c]pyridine-5-carboxylate], the inhibition at 10 µM is over 50%.
